Results as given in PMC5554727 (The Journal of steroid biochemistry and molecular biology, 2017).

Biological target: SULT1A1 (Homo sapiens, UniProt P50225)
Assay: inhibition of sulfonation of […]C-p-nitrophenol by recombinant enzyme
Type: biochemical

SULT1A1, sequence (P50225 whole entry): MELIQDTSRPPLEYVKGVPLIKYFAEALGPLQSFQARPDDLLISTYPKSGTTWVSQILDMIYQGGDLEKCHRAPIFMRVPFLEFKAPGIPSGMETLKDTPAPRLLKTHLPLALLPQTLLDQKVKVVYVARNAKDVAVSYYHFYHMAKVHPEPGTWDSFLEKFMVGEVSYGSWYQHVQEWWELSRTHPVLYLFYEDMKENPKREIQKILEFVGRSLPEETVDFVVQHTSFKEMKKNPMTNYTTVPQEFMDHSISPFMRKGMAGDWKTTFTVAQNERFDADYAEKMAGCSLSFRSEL

Molecule Cc1ccc(-c2cc(C(F)(F)F)nn2-c2ccc(S(N)(=O)=O)cc2)cc1 [celecoxib] has an IC50 of 2100 nM.
